Consider 25 molecules from patent US12209087B2, “AKT1 modulators” (Alterome Therapeutics, Inc., priority 2022, dated 2025).

Some results are limits rather than exact numbers.

The target of the test is T1, full length AKT E17K (Homo sapiens, UniProt P31749, E17K).
T1 construct: host or cells: HEK-293 (ATCC CRL-1573)
T1 sequence (P31749 whole entry E17K): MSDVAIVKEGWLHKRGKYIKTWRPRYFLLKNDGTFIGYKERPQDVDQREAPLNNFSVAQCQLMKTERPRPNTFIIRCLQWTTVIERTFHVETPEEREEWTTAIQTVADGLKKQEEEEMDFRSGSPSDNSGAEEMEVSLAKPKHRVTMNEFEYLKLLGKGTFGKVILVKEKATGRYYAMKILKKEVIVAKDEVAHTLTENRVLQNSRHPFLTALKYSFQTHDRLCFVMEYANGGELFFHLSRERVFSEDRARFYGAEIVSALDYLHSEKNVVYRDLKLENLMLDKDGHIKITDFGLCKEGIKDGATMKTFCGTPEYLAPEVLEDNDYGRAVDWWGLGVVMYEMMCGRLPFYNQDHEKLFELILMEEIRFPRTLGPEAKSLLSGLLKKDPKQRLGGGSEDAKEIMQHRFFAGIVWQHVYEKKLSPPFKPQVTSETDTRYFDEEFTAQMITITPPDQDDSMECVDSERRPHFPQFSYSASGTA
In words: NanoBRET Target Engagement (TE) Assay. The class given is cell-based. The note with it: competitive displacement of tracer in cells, read-out: AKT1 E17K IC50. In a few lines:
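Compound and tracer incubated 2 h before luminescence at donor 450 nm and acceptor 600 nm, with extracellular signal inhibited. EC50 by sigmoidal variable-slope regression.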
In general terms: Bioluminescence resonance energy transfer reports proximity on the nanometre scale.
As usually defined, the IC50 is the concentration needed to halve the response being measured. Take `[2H]C([2H])([2H])N(c1ccnc(C#N)n1)C1CCN(Cc2ccc(-n3c(-c4cccnc4N)nc4ccc(-c5ccc(F)cc5)nc43)cc2)CC1` [Example 441, 4-((1-(4-(2-(2-Aminopyridin-3-yl)-5-(4-fluorophenyl)-3H-imidazo[4,5-b]pyridin-3-yl)benzyl)piperidin-4-yl)(methyl-d3)amino)pyrimidine-2-carbonitrile]: the IC50 was less than 15 nM.
Then `[2H]C([2H])([2H])N(c1ccnc(C#N)n1)C1CCN(C([2H])([2H])c2ccc(-n3c(-c4cccnc4N)nc4ccc(-c5ccc(F)cc5)nc43)cc2)CC1` [Example 442, 4-((1-((4-(2-(2-Aminopyridin-3-yl)-5-(4-fluorophenyl)-3H-imidazo[4,5-b]pyridin-3-yl)phenyl)methyl-d2)piperidin-4-yl)(methyl-d3)amino)pyrimidine-2-carbonitrile], with less than 15 nM.
In the case of `N#Cc1nccc(NC2CN(Cc3ccc(-n4c(-c5cccnc5N)nc5ccc(-c6ccc(F)cc6)nc54)cc3)C2)n1` [Example 443, 4-((1-(4-(2-(2-Aminopyridin-3-yl)-5-(4-fluorophenyl)-3H-imidazo[4,5-b]pyridin-3-yl)benzyl)azetidin-3-yl)amino)pyrimidine-2-carbonitrile], the 50% inhibitory concentration (IC50) was less than 15 nM.
Next, `N#Cc1nccc(NC2CC3(CCN(Cc4ccc(-n5c(-c6cccnc6N)nc6ccc(-c7ccc(F)cc7)nc65)cc4)CC3)C2)n1` [Example 444, 4-((7-(4-(2-(2-Aminopyridin-3-yl)-5-(4-fluorophenyl)-3H-imidazo[4,5-b]pyridin-3-yl)benzyl)-7-azaspiro[3.5]nonan-2-yl)amino)pyrimidine-2-carbonitrile]: 15 to 60 nM; `N#Cc1nccc(NC2CC3(C2)CN(Cc2ccc(-n4c(-c5cccnc5N)nc5ccc(-c6ccc(F)cc6)nc54)cc2)C3)n1` [Example 445, 4-((2-(4-(2-(2-Aminopyridin-3-yl)-5-(4-fluorophenyl)-3H-imidazo[4,5-b]pyridin-3-yl)benzyl)-2-azaspiro[3.3]heptan-6-yl)amino)pyrimidine-2-carbonitrile]: less than 15 nM.
In the case of `N#Cc1nccc(NC2CCC3(CC2)CN(Cc2ccc(-n4c(-c5cccnc5N)nc5ccc(-c6ccc(F)cc6)nc54)cc2)C3)n1` [Example 446, 4-((2-(4-(2-(2-Aminopyridin-3-yl)-5-(4-fluorophenyl)-3H-imidazo[4,5-b]pyridin-3-yl)benzyl)-2-azaspiro[3.5]nonan-7-yl)amino)pyrimidine-2-carbonitrile], the half-maximal inhibitory concentration (IC50) lay within 15 to 60 nM.
Turning to `N#Cc1nccc(N2CC3(CN(Cc4ccc(-n5c(-c6cccnc6N)nc6ccc(-c7ccc(F)cc7)nc65)cc4)C3)C2)n1` [Example 447, 4-(6-(4-(2-(2-Aminopyridin-3-yl)-5-(4-fluorophenyl)-3H-imidazo[4,5-b]pyridin-3-yl)benzyl)-2,6-diazaspiro[3.3]heptan-2-yl)pyrimidine-2-carbonitrile], the IC50 was less than 15 nM.
Next, `N#Cc1nccc(N2CC3CCC(C2)N3Cc2ccc(-n3c(-c4cccnc4N)nc4ccc(-c5ccc(F)cc5)nc43)cc2)n1` [Example 448, 4-(8-(4-(2-(2-Aminopyridin-3-yl)-5-(4-fluorophenyl)-3H-imidazo[4,5-b]pyridin-3-yl)benzyl)-3,8-diazabicyclo[3.2.1]octan-3-yl)pyrimidine-2-carbonitrile]: 15 to 60 nM; `N#Cc1nccc(N2C[C@H]3CN(Cc4ccc(-n5c(-c6cccnc6N)nc6ccc(-c7ccc(F)cc7)nc65)cc4)C[C@H]3C2)n1` [Example 449, 4-((3aR,6aS)-5-(4-(2-(2-Aminopyridin-3-yl)-5-(4-fluorophenyl)-3H-imidazo[4,5-b]pyridin-3-yl)benzyl)hexahydropyrrolo[3,4-c]pyrrol-2(1H)-yl)pyrimidine-2-carbonitrile]: 15 to 60 nM; `N#Cc1nccc(N2C[C@@H]3CN(Cc4ccc(-n5c(-c6cccnc6N)nc6ccc(-c7ccc(F)cc7)nc65)cc4)C[C@H]3C2)n1` [Example 450, 4-((3aS,6aS)-5-(4-(2-(2-Aminopyridin-3-yl)-5-(4-fluorophenyl)-3H-imidazo[4,5-b]pyridin-3-yl)benzyl)hexahydropyrrolo[3,4-c]pyrrol-2(1H)-yl)pyrimidine-2-carbonitrile]: 15 to 60 nM.
Then `[2H]C1(Nc2ccnc(C#N)n2)CCN(Cc2ccc(-n3c(-c4cccnc4N)nc4ccc(-c5ccc(F)cc5)nc43)cc2)CC1` [Example 451, 4-((1-(4-(2-(2-Aminopyridin-3-yl)-5-(4-fluorophenyl)-3H-imidazo[4,5-b]pyridin-3-yl)benzyl)piperidin-4-yl-4-d)amino)pyrimidine-2-carbonitrile], with less than 15 nM; and `[2H]C1(Nc2ccnc(C#N)n2)CCN(Cc2ccc(-n3c(-c4cccnc4N)nc4cc(C)c(C)nc43)cc2)CC1` [Example 452, 4-((1-(4-(2-(2-Aminopyridin-3-yl)-5,6-dimethyl-3H-imidazo[4,5-b]pyridin-3-yl)benzyl)piperidin-4-yl-4-d)amino)pyrimidine-2-carbonitrile], with less than 15 nM.
Consider `N#Cc1nccc(NC2CCN(Cc3ccc(-n4c(-c5cccnc5N)nc5ccc(C6=CCCC6)nc54)cc3)CC2)n1` [Example 453, 4-((1-(4-(2-(2-aminopyridin-3-yl)-5-(cyclopent-1-en-1-yl)-3H-imidazo[4,5-b]pyridin-3-yl)benzyl)piperidin-4-yl)amino)pyrimidine-2-carbonitrile], for which the half-maximal inhibitory concentration (IC50) was less than 15 nM.
For `C=Cc1ccc2nc(-c3cccnc3N)n(-c3ccc(CN4CCC(Nc5ccnc(C#N)n5)CC4)cc3)c2n1` [Example 454, 4-((1-(4-(2-(2-Aminopyridin-3-yl)-5-vinyl-3H-imidazo[4,5-b]pyridin-3-yl)benzyl)piperidin-4-yl)amino)pyrimidine-2-carbonitrile], the IC50 was less than 15 nM.
Consider `[2H]C([2H])([2H])N(c1ccnc(C#N)n1)C1CCN(Cc2ccc(-n3c(-c4cccnc4N)nc4cc(C)c(C)nc43)cc2)CC1` [Example 455, 4-((1-(4-(2-(2-Aminopyridin-3-yl)-5,6-dimethyl-3H-imidazo[4,5-b]pyridin-3-yl)benzyl)piperidin-4-yl)(methyl-d3)amino)pyrimidine-2-carbonitrile], for which the half-inhibitory concentration (IC50) was less than 15 nM.
Next, `N#Cc1nccc(NC2CCN(Cc3ccc(-n4c(-c5cccnc5N)nc5ccc(-c6ccc(F)cn6)nc54)cc3)CC2)n1` [Example 456, 4-((1-(4-(2-(2-Aminopyridin-3-yl)-5-(5-fluoropyridin-2-yl)-3H-imidazo[4,5-b]pyridin-3-yl)benzyl)piperidin-4-yl)amino)pyrimidine-2-carbonitrile]: less than 15 nM; `CNc1ccc2nc(-c3cccnc3N)n(-c3ccc(CN4CCC(Nc5ccnc(C#N)n5)CC4)cc3)c2n1` [Example 457, 4-((1-(4-(2-(2-Aminopyridin-3-yl)-5-(methylamino)-3H-imidazo[4,5-b]pyridin-3-yl)benzyl)piperidin-4-yl)amino)pyrimidine-2-carbonitrile]: 15 to 60 nM.
Then `[2H]C([2H])([2H])N(c1ccc2nc(-c3cccnc3N)n(-c3ccc(CN4CCC(Nc5ccnc(C#N)n5)CC4)cc3)c2n1)C([2H])([2H])[2H]` [Example 458, 4-((1-(4-(2-(2-Aminopyridin-3-yl)-5-(bis(methyl-d3)amino)-3H-imidazo[4,5-b]pyridin-3-yl)benzyl)piperidin-4-yl)amino)pyrimidine-2-carbonitrile], with less than 15 nM; and `[2H]C([2H])([2H])Nc1ccc2nc(-c3cccnc3N)n(-c3ccc(CN4CCC(Nc5ccnc(C#N)n5)CC4)cc3)c2n1` [Example 459, 4-((1-(4-(2-(2-Aminopyridin-3-yl)-5-((methyl-d3)amino)-3H-imidazo[4,5-b]pyridin-3-yl)benzyl)piperidin-4-yl)amino)pyrimidine-2-carbonitrile], with less than 15 nM; and `N#Cc1nccc(NC2CCN(Cc3ccc(-n4c(-c5cccnc5N)nc5ccc(N6CCC6)nc54)cc3)CC2)n1` [Example 460, 4-((1-(4-(2-(2-Aminopyridin-3-yl)-5-(azetidin-1-yl)-3H-imidazo[4,5-b]pyridin-3-yl)benzyl)piperidin-4-yl)amino)pyrimidine-2-carbonitrile], with less than 15 nM.
Next, `N#Cc1nccc(NC2CCN(Cc3ccc(-n4c(-c5cccnc5N)nc5ccc(-c6cnoc6)nc54)cc3)CC2)n1` [Example 461, 4-((1-(4-(2-(2-Aminopyridin-3-yl)-5-(isoxazol-4-yl)-3H-imidazo[4,5-b]pyridin-3-yl)benzyl)piperidin-4-yl)amino)pyrimidine-2-carbonitrile]: less than 15 nM; `N#Cc1nccc(NC2CCN(Cc3ccc(-n4c(-c5cccnc5N)nc5ccc(-c6cnco6)nc54)cc3)CC2)n1` [Example 462, 4-((1-(4-(2-(2-Aminopyridin-3-yl)-5-(oxazol-5-yl)-3H-imidazo[4,5-b]pyridin-3-yl)benzyl)piperidin-4-yl)amino)pyrimidine-2-carbonitrile]: less than 15 nM; `Cc1oncc1-c1ccc2nc(-c3cccnc3N)n(-c3ccc(CN4CCC(Nc5ccnc(C#N)n5)CC4)cc3)c2n1` [Example 463, 4-((1-(4-(2-(2-Aminopyridin-3-yl)-5-(5-methylisoxazol-4-yl)-3H-imidazo[4,5-b]pyridin-3-yl)benzyl)piperidin-4-yl)amino)pyrimidine-2-carbonitrile]: less than 15 nM.
Regarding `Cc1nocc1-c1ccc2nc(-c3cccnc3N)n(-c3ccc(CN4CCC(Nc5ccnc(C#N)n5)CC4)cc3)c2n1` [Example 464, 4-((1-(4-(2-(2-Aminopyridin-3-yl)-5-(3-methylisoxazol-4-yl)-3H-imidazo[4,5-b]pyridin-3-yl)benzyl)piperidin-4-yl)amino)pyrimidine-2-carbonitrile], the 50% inhibitory concentration (IC50) was less than 15 nM.
On to `Cc1cc(-c2ccc3nc(-c4cccnc4N)n(-c4ccc(CN5CCC(Nc6ccnc(C#N)n6)CC5)cc4)c3n2)[nH]n1` [Example 465, 4-((1-(4-(2-(2-Aminopyridin-3-yl)-5-(3-methyl-1H-pyrazol-5-yl)-3H-imidazo[4,5-b]pyridin-3-yl)benzyl)piperidin-4-yl)amino)pyrimidine-2-carbonitrile], for which the IC50 was less than 15 nM.
